What is called IC50 is the concentration at which inhibition is half-maximal. Higher therefore signals lower potency.

From patent publication US7919493B2, “Anititumoral ecteinascidin derivatives” (Pharma Mar, S.A., priority 2001, dated 2011) come the findings set out here.

Format in all cases: cell-based
In test [1] the test system is P-388 (suspension culture of a lymphoid neoplasm from DBA/2 mouse). Briefly: Cytotoxic activity screening, P-388 cells. The settings on record: three days of incubation, approximate IC50 vs control growth; for IC50: Mus musculus, P388, 72 h. As to the method: (§1) Cell Cultures. Cells were maintained in logarithmic phase of growth in Eagle's Minimum Essential Medium, with Earle's Balanced Salts, with 2.0 mM L-glutamine, with non-essential amino acids, without sodium bicarbonate (EMEM/neaa); supplemented with 10% Fetal Calf Serum (FCS), 10^−2 M sodium bicarbonate and 0.1 g/l penicillin-G+streptomycin sulfate.
(§2) A simple screening procedure has been carried out to determine and compare the antitumour activity of these compounds, using an adapted form of the method described by Bergeron et al (1984). The tumour cell line employed have been P-388 (suspension culture of a lymphoid neoplasm from DBA/2 mouse), A-549 (monolayer culture of a human lung carcinoma), HT-29 (monolayer culture of a human colon carcinoma) and MEL-28 (monolayer culture of a human melanoma).
P-388 cell were seeded into 16 mm wells at 1×10^4 cells per well in 1 ml aliquots of MEM 5FCS containing the indicated concentration of drug. A separate set of cultures without drug was seeded as control growth to ensure that cells remained in exponential phase of growth. All determinations were carried out in duplicate.

The test system of test [2] is A-549 (monolayer culture of a human lung carcinoma). Briefly: Cytotoxic activity screening, A-549 cells. The settings on record: three days of incubation, Crystal Violet, approximate IC50; for IC50: Homo sapiens, A549, 72 h. The procedure:
as §1
(§3) A separate set of cultures without drug was seeded as control growth to ensure that cells remained in exponential phase of growth. All determinations were carried out in duplicate. After three days of incubation at 37° C., 10% CO2 in a 98% humid atmosphere, the wells were stained with 0.1% Crystal Violet. An approximately IC50 was determined by comparing the growth in wells with drug to the growth in wells control.

For test [3], the system named is MEL-28 (monolayer culture of a human melanoma). The experiment in a line: Cytotoxic activity screening, MEL-28 cells. The following applies: three days of incubation, Crystal Violet, approximate IC50; for IC50: Homo sapiens, SK-MEL-28, 72 h. As to the method:
as §1, §2
A-549, HT-29 and MEL-28 were seeded into 16 mm wells at 2×10^4 cells per well in 1 ml aliquots of MEM 10FCS containing the indicated concentration of drug. A separate set of cultures without drug was seeded as control growth to ensure that cells remained in exponential phase of growth. All determinations were carried out in duplicate. After three days of incubation at 37° C., 10% CO2 in a 98% humid atmosphere, the wells were stained with 0.1% Crystal Violet. An approximately IC50 was determined by comparing the growth in wells with drug to the growth in wells control.

The subject of test [4] is HT-29 (monolayer culture of a human colon carcinoma). The experiment in a line: Cytotoxic activity screening, HT-29 cells. The following applies: three days of incubation, Crystal Violet, approximate IC50; for IC50: Homo sapiens, HT-29, 72 h. The procedure:
as §1, §3

For test [5], the system named is DU-145. The experiment in a line: Cytotoxic activity screening, DU-145 cells. The following applies: for IC50: Homo sapiens, DU-145, DU-145 cells; for IC50 DU-145: DU-145 cells. The procedure:
[The source words this procedure for another cell line and reports this cell line under the same test.] as §1, §2
Examples of biological activities of the compounds described in the present application are in Table IV (IC50 (ng/mL)) on the following pages.

≈ marks a conversion by molar mass, not a printed value.

In the case of `COc1c(C)cc2c(c1O)[C@@H]1C3[C@@H]4SC[C@H](NC(=O)/C=C/c5ccccc5)C(=O)OC[C@@H](c5c6c(c(C)c(OC(C)=O)c54)OCO6)N3[C@@H](O)[C@H](C2)N1C` (stereo in doubt) [Compound 4h], the IC50 in test [1], in test [2], in test [3], in test [4] and in test [5] was 0.5 ng/mL (≈ 0.672 nM) in each case.

Regarding `CC(=O)Oc1c(C)c2c(c3c1[C@H]1SC[C@H](N)C(=O)OC[C@@H]3N3C1[C@H]1c4c(cc(C)c(O)c4O)C[C@@H]([C@@H]3C#N)N1C)OCO2` (stereo partly shown) [Compound 24], the IC50 in test [2] and in test [4] was 100 ng/mL (≈ 164 nM) throughout.

As to `COC(=O)c1ccccc1C(=O)N[C@H]1CS[C@@H]2c3c(OC(C)=O)c(C)c4c(c3[C@H](COC1=O)N1C2[C@H]2c3c(cc(C)c(OC)c3O)C[C@@H]([C@@H]1C#N)N2C)OCO4` (stereo partly shown) [Compound 6], the IC50 in test [1], in test [2], in test [3], in test [4] and in test [5] was 1 ng/mL (≈ 1.27 nM) throughout.

Regarding `CCCC(=O)O[C@H]1CS[C@@H]2c3c(OC(C)=O)c(C)c4c(c3[C@H](COC1=O)N1C2[C@H]2c3c(cc(C)c(OC)c3O)C[C@@H]([C@@H]1C#N)N2C)OCO4` (stereo partly shown) [Compound 17c], the IC50 in test [1], in test [2], in test [3], in test [4] and in test [5] was 1 ng/mL (≈ 1.44 nM) in each case.

As for `COc1c(C)cc2c(c1O)[C@@H]1C3[C@@H]4SC[C@H](NC(=O)/C=C/c5ccc(C(F)(F)F)cc5)C(=O)OC[C@@H](c5c6c(c(C)c(OC(C)=O)c54)OCO6)N3[C@@H](O)[C@H](C2)N1C` (stereo partly shown) [Compound 4i], the IC50 in test [1], in test [2], in test [3], in test [4] and in test [5] was 1 ng/mL (≈ 1.23 nM) each time.

As for `COc1c(C)cc2c(c1O)[C@@H]1C3[C@@H]4SC[C@H](NC(=O)C(NC(=O)C(C)NC(=O)/C=C/c5ccccc5)C(C)C)C(=O)OC[C@@H](c5c6c(c(C)c(OC(C)=O)c54)OCO6)N3[C@@H](O)[C@H](C2)N1C` (stereo partly shown) [Compound 4u], the IC50 in test [1], in test [2], in test [3], in test [4] and in test [5] was 5 ng/mL (≈ 5.47 nM) each time.

Regarding `COc1c(C)cc2c(c1O)[C@@H]1C3[C@@H]4SC[C@H](NC(=O)C(C)N)C(=O)OC[C@@H](c5c6c(c(C)c(OC(C)=O)c54)OCO6)N3[C@@H](C#N)[C@H](C2)N1C` (stereo partly shown) [Compound 3v], the concentration for half-maximal inhibition (IC50) in test [1], in test [2], in test [3], in test [4] and in test [5] was 1 ng/mL (≈ 1.44 nM) in each case.

Take `COc1c(C)cc2c(c1O)[C@@H]1C3[C@@H]4SC[C@@H](OC(C)=O)C(=O)OC[C@@H](c5c6c(c(C)c(OC(C)=O)c54)OCO6)N3[C@@H](O)[C@H](C2)N1C` (stereo partly shown) [Compound 21a]: the concentration for half-maximal inhibition (IC50) in test [1] is 0.5 ng/mL (≈ 0.761 nM); in test [2] it was 1 ng/mL (≈ 1.52 nM); in test [3] it was 1 ng/mL (≈ 1.52 nM); in test [4], 1 ng/mL (≈ 1.52 nM); in test [5] it was 1 ng/mL (≈ 1.52 nM).

With `COc1c(C)cc2c(c1O)[C@@H]1C3[C@@H]4SC[C@H](NC(=O)C(C)NC(=O)/C=C/c5ccccc5)C(=O)OC[C@@H](c5c6c(c(C)c(OC(C)=O)c54)OCO6)N3[C@@H](O)[C@H](C2)N1C` (stereo partly shown) [Compound 4x], the 50% inhibitory concentration (IC50) in test [1], in test [2], in test [3], in test [4] and in test [5] was 1 ng/mL (≈ 1.23 nM) each time.

As for `COc1c(C)cc2c(c1O)[C@@H]1C3[C@@H]4SC[C@H](NC(=O)CC(C)C)C(=O)OC[C@@H](c5c6c(c(C)c(OC(C)=O)c54)OCO6)N3[C@@H](O)[C@H](C2)N1C` (stereo partly shown) [Compound 4d], the IC50 in test [1], in test [2], in test [3], in test [4] and in test [5] was 0.5 ng/mL (≈ 0.717 nM) each time.

In the case of `CCCCCCCCCCCCCCCC(=O)N[C@H]1CS[C@@H]2c3c(OC(C)=O)c(C)c4c(c3[C@H](COC1=O)N1C2[C@H]2c3c(cc(C)c(OC)c3O)C[C@@H]([C@@H]1O)N2C)OCO4` (stereo partly shown) [Compound 4f], the 50% inhibitory concentration (IC50) in test [1], in test [2], in test [3], in test [4] and in test [5] was 100 ng/mL (≈ 117 nM) each time.

Turning to `COc1c(C)cc2c(c1O)[C@@H]1C3[C@@H]4SC[C@H](NC(=O)C(N)C(C)C)C(=O)OC[C@@H](c5c6c(c(C)c(OC(C)=O)c54)OCO6)N3[C@@H](C#N)[C@H](C2)N1C` (stereo partly shown) [Compound 3p], the IC50 in test [1], in test [2], in test [3], in test [4] and in test [5] was 1 ng/mL (≈ 1.39 nM) throughout.

Take `CCCCCCCCCCCCCCCC(=O)N[C@H]1CS[C@@H]2c3c(OC(C)=O)c(C)c4c(c3[C@H](COC1=O)N1C2[C@H]2c3c(cc(C)c(OC)c3O)C[C@@H]([C@@H]1C#N)N2C)OCO4` (stereo partly shown) [Compound 3f]: the “IC50 P-388” value in test [1] was >1-10^3 ng/mL. In addition, the “IC50 A-549” value in test [2] is reported as >1-10^3 ng/mL. For the same molecule, in test [3], the “IC50 MEL-28” value was >1-10^3 ng/mL. Further, in test [4], the “IC50 HT-29” value is recorded as >1-10^3 ng/mL. Also, in test [5], the “IC50 DU-145” value was >1-10^3 ng/mL.

As for `COc1c(C)cc2c(c1O)[C@@H]1C3[C@@H]4SC[C@@H](OC(C)=O)C(=O)OC[C@@H](c5c6c(c(C)c(OC(C)=O)c54)OCO6)N3[C@@H](C#N)[C@H](C2)N1C` (stereo partly shown) [Compound 17a], the “IC50 P-388” value in test [1] is 0.1 ng/mL (≈ 0.15 nM). Moreover, in test [2], the “IC50 A-549” value worked out at 0.1 ng/mL (≈ 0.15 nM). The “IC50 MEL-28” value in test [3] is listed as 0.1 ng/mL (≈ 0.15 nM). In test [4], the “IC50 HT-29” value was found to be 0.1 ng/mL (≈ 0.15 nM). Besides, the “IC50 DU-145” value in test [5] was 0.1 ng/mL (≈ 0.15 nM).

Take `COc1c(C)cc2c(c1O)[C@@H]1C3[C@@H]4SC[C@H](OC(=O)C(F)(F)F)C(=O)OC[C@@H](c5c6c(c(C)c(OC(C)=O)c54)OCO6)N3[C@@H](C#N)[C@H](C2)N1C` (stereo partly shown) [Compound 17b]: the IC50 in test [1], in test [2], in test [3], in test [4] and in test [5] was 5 ng/mL (≈ 6.95 nM) each time.

In the case of `COc1c(C)cc2c(c1O)[C@@H]1C3[C@@H]4SC[C@H](OS(C)(=O)=O)C(=O)OC[C@@H](c5c6c(c(C)c(OC(C)=O)c54)OCO6)N3[C@@H](C#N)[C@H](C2)N1C` (stereo partly shown) [Compound 17ll], the half-inhibitory concentration (IC50) in test [1], in test [2], in test [3] and in test [4] was 1 ng/mL (≈ 1.42 nM) in each case.

For `CCCCCCCCCCCCCCCC(=O)O[C@H]1CS[C@@H]2c3c(OC(C)=O)c(C)c4c(c3[C@H](COC1=O)N1C2[C@H]2c3c(cc(C)c(OC)c3O)C[C@@H]([C@@H]1O)N2C)OCO4` (stereo partly shown) [Compound 21f], the half-maximal inhibitory concentration (IC50) in test [2] and in test [4] was over 1000 ng/mL each time.

Turning to `CCCN[C@H]1CS[C@@H]2c3c(OC(C)=O)c(C)c4c(c3[C@H](COC1=O)N1C2[C@H]2c3c(cc(C)c(OC)c3O)C[C@@H]([C@@H]1C#N)N2C)OCO4` (stereo partly shown) [Compound 3o], the IC50 in test [2] and in test [4] was 5 ng/mL (≈ 7.52 nM) in each case.

As for `CCCN[C@H]1CS[C@@H]2c3c(OC(C)=O)c(C)c4c(c3[C@H](COC1=O)N1C2[C@H]2c3c(cc(C)c(OC)c3O)C[C@@H]([C@@H]1O)N2C)OCO4` (stereo partly shown) [Compound 4o], the half-inhibitory concentration (IC50) in test [2] and in test [4] was 1 ng/mL (≈ 1.52 nM) in each case.

On to `CC(=O)N[C@@H]1CS[C@@H]2c3c(OC(C)=O)c(C)c4c(c3[C@H](COC1=O)N1C2[C@H]2c3c(cc(C)c(O)c3O)C[C@@H]([C@@H]1C#N)N2C)OCO4` (stereo partly shown) [Compound 26], for which the IC50 in test [2] and in test [4] was 100 ng/mL (≈ 154 nM) each time.

For the molecule `COc1c(C)cc2c(c1O)[C@@H]1C3[C@@H]4SC[C@@H](NC(C)=O)C(=O)OC[C@@H](c5c6c(c(C)c(O)c54)OCO6)N3[C@@H](C#N)[C@H](C2)N1C` (stereo partly shown) [Compound 25], the half-inhibitory concentration (IC50) in test [2] and in test [4] was 10 ng/mL (≈ 16.1 nM) in each case.

As for `COc1c(C)cc2c(c1O)[C@@H]1C3[C@@H]4SC[C@@H](O)C(=O)OC[C@@H](c5c6c(c(C)c(OC(C)=O)c54)OCO6)N3[C@@H](C#N)[C@H](C2)N1C` (stereo partly shown) [Compound 16*], the IC50 in test [2] and in test [4] was 10 ng/mL (≈ 16 nM) each time.
